Columns and labels:
[1] = test system: pbp4 expression in USA300; assay: Quantitative reverse transcriptase PCR of pbp4 transcript; assay type: cell-based, Staphylococcus aureus; details: 25 μM, 3 hour
Protocol: (§1) Quantitative Reverse Transcriptase PCR. PBP4 transcript titers of bacterial cells exposed to putative PBP4 inhibitors were measured using real time quantitative PCR (RT-qPCR), as previously described (Chojnacki, et al. Antibiotics, 2021, 10, 369). Briefly, overnight cultures of S. aureus strains USA300, USA300Δpbp4, CRB, and CRBΔpbp4 were grown overnight in MH media, diluted (1:100 dilution) in fresh media and sub-cultured to a final OD600 nm of 0.2 at 37° C. with aeration. […] Cells were washed with PBS buffer, and collected via centrifugation at 1,250×g for 10 minutes. Total bacterial RNA was isolated from cell pellets using Qiagen® RNeasy kits, following the manufacturer's guidelines for prokaryotic RNA isolation (Qiagen®, Germantown, MD). A total of 2 μg RNA was DNase treated and repurified using RNeasy kits.
(§2) To measure pbp4 expression, a total of 400 ng of total bacterial RNA was used as a template for qRT-PCR using pbp4 primers (forward, 5′-[…]-3′; reverse, 5′-[…]-3′) and a total of 4 ng of total bacterial RNA was used as a template for primers specific for 16S rRNA (forward, 5′-[…]-3′; reverse, 5′-[…]-3′). Bacterial RNA was amplified and measured using PerfeCTa® SYBR Green FastMix® and qScript® cDNA SuperMix® kits following the manufacturer's recommendations (QuantaBio®, Beverly, MA). […]

pbp4 expression in CRB = assay: as above; assay type: cell-based, Staphylococcus aureus; details: 25 μM, 3 hour
Protocol: as §1, §2

HEPG2 cells = assay: MTT cell viability / mammalian cytotoxicity; assay type: cell-based, human; details: 100 μM; HEPG2 approx. 2.5 × 10^5 cells/mL; Ex. 3 series
Protocol: Eukaryotic Toxicity Testing. Two rounds of eukaryotic toxicity testing were performed. Initially hits of interest were evaluated for antifungal activity in high throughput manner. To do so, 10^5 CFU of Saccharomyces cerevisiae YSB1001 cells (10 μL) were inoculated into individual wells of a microtiter plate containing yeast peptone dextrose media (88 μL) and 50 μM of each hit (2 μL). […] More extensive mammalian cytotoxicity testing was performed on the indicated highest priority hits of interest following International Organization for Standardization guidelines. Briefly, human liver epithelial cells (HEPG2) were cultured in Dulbecco's modified Eagle medium (DMEM; Fisher Scientific®) supplemented with 10% heat inactivated fetal bovine serum (FBS; Corning Life Sciences, Corning, NY) and 1% penicillin and streptomycin. Cells were incubated at 37° C. with 5% CO2 in Nunc™ tissue culture flasks (Roskilde, Denmark) until reaching 70% confluency. Cells were removed with 0.25% trypsin (Fisher Scientific®), resuspended in fresh medium, and used to seed approximately 2.5×10^5 mL^−1 cells into individual wells of a 96 well tissue culture microplate (Nunc™) containing 200 μL of fresh medium, and incubated for 24 hours. […] Mixtures were incubated for 20-24 h at 37° C. with 5% CO2, the media was removed and replaced with 100 μL fresh media and 10 μL of 12 mM (3-(4,5-dimethylthiazol-2-yl)-2,5-diphenyltetrazolium bromide (MTT) reagent (Cyquant™ Cell Viability kit; Invitrogen™, Carlsbad, CA) was added to each well. Cells were incubated at 37° C. with 5% CO2 for 2-4 hour, 85 μL of media was removed and the remainder was mixed with 50 μL DMSO and incubated for an additional 10 minutes at 37° C. in the dark. Using a SpectraMax® M5 microplate reader, cell viability was recorded as absorbance at OD540 nm. All compounds were tested in triplicate and cell viability was expressed as a percent viability of treated cells in comparison to mock treated cells. […]

MRSA strain BAA-1770 = assay: Broth microdilution antibiotic potentiation; assay type: cell-based, Staphylococcus aureus; details: Ex. 3 compound at 60 μM
Protocol: Broth Microdilution Method for Antibiotic Potentiation with MRSA Strains. Bacteria were cultured for 6 hours in CAMHB and sub-cultured to 5×10^5 CFU/mL in CAMHB. Subcultures were aliquoted (4 mL) into culture tubes and then inoculated with compound from 10 mM or 100 mM stock in DMSO to the desired concentration. […] Bacteria treated with antibiotic alone served as the control. Samples from the secondary culture tubes were then aliquoted (200 μL) into the first row of wells of a 96-well microtiter plate. Rows 2-11 were filled (100 μL) with the remaining 4 mL of bacterial subculture containing the adjuvant. Row 12 was filled (100 μL) with uninoculated media. From row 1, 100 μL was transferred to row two and mixed 5-8 times before being transferred to row 3. This procedure was used to serial dilute the rest of the rows through 10. The microtiter plate was then covered in Press 'n Seal and incubated at 37° C.

O=C(Nc1ccc2[nH]c(-c3cccs3)nc2c1)c1ccco1 [Compound 1 (7729837)]
pbp4 expression (qRT-PCR) [1]: slightly reduced
pbp4 expression (qRT-PCR) (pbp4 expression in CRB): significantly reduced
Toxicity with HEPG2 Cells (cell viability) (HEPG2 cells): 95±16.8%
Oxacillin MIC fold reduction (MRSA strain BAA-1770): 32

From US20260124213A1, “STAPHYLOCOCCUS AUREUS PBP4 INHIBITORS AND METHOD OF USE” (UNIVERSITY OF ROCHESTER, priority 2022, published 2026)
